{"source": "patent US20160374979A1", "about": "“Method of Treatment of Alopecia with Monoterpenoids” (CELLMID LIMITED, priority 2013, published 2016)", "key": {"[1]": {"tested_on": "FGF-5-dependent cell proliferation (FR-BaF3 cells expressing FGFR-1c)", "assay": "FR-Ba/F3 cell proliferation/viability assay in the presence of FGF-5 (CCK-8)", "format": "cell-based, murine", "method": "Ba/F3 is a murine interleukin-3 (IL-3)-dependent pro-B cell line. […] That is, compounds were tested for their ability to modulate proliferation of FR-Ba/F3 cells in the presence of recombinant human FGF-5 (rhFGF-5) prepared according to Maeda et al., Nishi Nihon Hifuka, 69(1): 81-86, 2007.\nBriefly, a suitable plasmid expressing FGFR-1c was introduced into […] ER-Ba/F3 cells, and the cells were maintained in RPMI RPMI-1640 with 10% FBS and 1.3×10^−17 M of murine IL-3 (Sigma, St Louis, […].) containing antibiotic G418 sulfate (Promega, Medison, Wis.). The inventors compared proliferation of FR/BaF3 cells in culture medium containing IL3 or FGF-5 and a different concentration in the range from 0.005% (w/v) to 1.0% (w/v) of each test compound listed in Example 1. The FR-BaF3 cells were seeded at 5×10^4/mL cells per well in 96-well, micro-culture plates (Falcon) in RPMI-1640 culture medium containing 10% fetal bovine serum, 5 μg/mL heparin. Recombinant human FGF-5 (rhFGF-5; 1 μg/mL) was added to one group, and IL-3 (0.2 ng/mL) (Sigma) was added to another group. The test compounds were then introduced to the micro-culture plate wells. Total volume of media per well was 100 μl. Control groups lacking test compound were also prepared for each of the IL-3-supplemented and FGF-5-supplemented samples. The plates were then incubated at 37° C. in 5% CO2 for 3 days.\nAfter 3 days, colorimetric assays were performed using a Cell Counting Kit-8 (CCK-8) (Wako) according to the manufacturer's instructions to measure cell proliferation or suppression thereof by the test compound at varying concentrations. Briefly, 10 μl (1:2 dilution) of the CCK-8 reagent was added to each micro-culture plate well after which time the plates were incubated at […] for 3 hours. Absorbance at 450 nm was then measured using a microplate reader. Cell viability and proliferation for the IL-3-supplemented and FGF-5-supplemented groups was calculated as a measure of the optical density (OD) of cells treated with a test compound relative to the OD of the respective untreated controls, excluding the OD of blank controls (media only). Dose response curves were plotted and the respective inhibitory concentrations (IC50) for the test compounds were determined."}, "[2]": {"tested_on": "Alkaline Phosphatase (ALP) activity in dermal papilla (DP) cells treated with FGF-5", "assay": "Dermal papilla alkaline phosphatase (DP-ALP) cell assay", "format": "cell-based, human", "conditions": "for relative ALP activity of DP cells treated FGF-5: 0.005-0.5 mg/ml, GSK3 inhibitor IX + rhFGF-5 1 μg/mL, 3 days, absorbance 490 nm", "method": "Dermal papilla cells were prepared according to the methods described in WO2013/105417, Briefly, hairs were pulled from the scalp of a healthy subject showing normal non-alopecia hair growth using tweezers. Hair follicles with dermal papilla were thus obtained at a rate of approximately one for every 100 hairs pulled. The hair follicles with dermal papilla were separated from the hair using tweezers and transferred into a saline for inspection under a microscope. Under a microscope, each dermal papilla was isolated from a respective hair follicle using tweezers and a scalpel. Approximately 2000 isolated dermal papilla cells were then transferred to a 35 mm cell culture dish together 1-2 ml of cell culture medium, after which time the cells were cultured at 37° C. to produce a primary cell culture of dermal papilla. The cell culture medium consisted of approximately 90% DMEM medium, 10% fetal bovine serum (final concentration: 10%), FGF2 (final, concentration: 10 ng/ml), and penicillin-streptornycin solution (final concentration: 1 μg/ml) for every 2 mL of medium. Cell culture conditions were maintained for more than 14 days until dermal papilla cells covered approximately 40% of the area of the 35 mm culture dish, at which time subcultures were performed. To prepare the subcultures, the cell culture medium was removed from the 35 mm culture dish and the adherent cells were washed once with 2 ml of saline (at room temperature). 1 ml Trypsin-EDTA solution (0.1% trypsin and 0.02% EDTA) was then added to the 35 mm culture dish and left to stand for 4 minutes at 37° C. Dissociated dermal papilla cells were then recovered from the 35 mm dish, and seeded to a new 100 mm dish, and cultured in media under the same conditions as for the primary cell culture described above.\nWhen the dermal papilla cells covered approximately 70-80% of the area of each 100 mm culture dish, the sub-confluent cells were subcultured as before. The process was repeated until sufficient cells were obtained to screen compounds of interest.\nOnce sufficient DP cells were obtained, the cells were harvested to provide a cell suspension. To harvest the DP cells, the cell culture medium was removed from the culture dish, and the adherent cells were washed with saline at room temperature. Trypsin-EDTA solution was then added under conditions described supra to dissociate the cells from the cell culture dish. Approximately 5×10^5 of the dissociated cells were resuspended in 500 ml of assay medium containing 445 ml of DMEM medium, 50 ml of 10% fetal calf serum and 5 ml of antibiotic.\nAliquots of the cell suspension were transferred to the wells of cell culture dishes, and a single monoterpenoid listed in Example 1 e.g., (−)-4-terpinen-4-ol, (+)-4-terpinen-4-ol. (±)-4-terpinen-4-ol, α-terpineol, nonanal, linalyl acetate or piperitone, is added to each well at a concentration of 0.005 (mg/ml) or 0.01 (mg/ml) or 0.05 (mg/ml) or 0.1 (mg/ml) or 0.5 (mg/ml). Cell suspensions were transferred to wells of a further cell culture dish to which minoxidil was then added at a concentration of 0.005 (mg/ml) or 0.01 (mg/ml) or 0.05 (mg/ml) or 0.1 (mg/ml) or 0.5 (mg/ml). A Wnt/β-catenin pathway activation agent e.g., Wnt3a or GSK-3 Inhibitor IX, as added to each of the cell cultures to produce an “activated cell culture”. Control cell cultures containing the same monoterpenoid compound or minoxodil, but lacking the Wnt/β-cinenin pathway activation agent, were processed in parallel. These activated and control cell cultures were divided further into duplicate cell culture samples either lacking FGF-5 or to which recombinant human FGF-5 (rhFGF-5; 1 μg/mL)) was added.\nThe cell culture samples were each cultured at 37° C. for 3 days under atmosphere containing less than 5% CO2. […]"}}, "note": "Entries after “also recorded” stand apart in the source; their conditions may differ.", "data": [{"smiles": "CC1=CC(=O)C(C(C)C)CC1", "note": "(centres unmarked) [Piperitone, 3-Methyl-6-(propan-2-yl)cyclohex-2-en-1-one]", "values": [{"measurement": "FGF-5-inhibitory activity (in words)", "setting": "[1]; judged from FR-BaF3 result", "value": "potent FGF-5-inhibitory active substances"}, {"measurement": "FGF-5 Specificity IL-1/FGF-5", "setting": "[1]; ratio of the IC50 with IL-3 to the IC50 with FGF-5, BR: less reproducible", "value": 25}, {"measurement": "relative ALP activity of DP cells treated FGF-5", "setting": "[2]", "value": "increased relative ALP activity"}, {"measurement": "relative ALP activity of DP cells treated FGF-5", "setting": "[2]; listed as piperitone", "value": "high alkaline phosphatase activity; also recorded: higher alkaline phosphatase activity in dermal papillae than a racemic mixture of terpinen-4-al or (+)-Terpinen-4-ol"}, {"measurement": "FGF-5-inhibitory activity ranked from most active to least active by DP-ALP assay", "setting": "[2]; rank order", "value": "Piperitone>(−)-terpinen-4-ol>(±)-Terpinen-4β-Terpineol> (+)-Terpinen-4-ol > Linalyl Acetate"}]}]}
